Measured values taken from patent publication US20240182482A1, “FUSED CYCLIC COMPOUND AS WEE-1 INHIBITOR, PREPARATION METHOD THEREFOR AND USE THEREOF” (WIGEN BIOMEDICINE TECHNOLOGY (SHANGHAI) CO., LTD., priority 2021, published 2024).

What was measured:
Wee-1 kinase = Wee-1 kinase (Homo sapiens (Human), UniProt P30291); assay: Inhibitory activity against Wee-1 kinase (ADP-GLO chemiluminescence); assay type: biochemical; conditions: 60 min reaction at room temperature
Procedure: Example 71. Assay of Inhibitory Activity of Compounds of the Present Invention Against Wee-1 Kinase
After the serially diluted compound and an enzyme were mixed, the mixture was incubated at room temperature (25° C.) for 15 min, and then centrifuged at 1000 rpm for 1 min for mixing. 5 μL of substrate was added to start the reaction. After the mixture was reacted at room temperature for 60 min, 5 μL of ADP-GLO reagent was added and the mixture was centrifuged at 1000 rpm for 1 min for mixing. The mixture was subsequently incubated at room temperature for 60 min, and then 10 μL of kinase detection reagent was added. The mixture was incubated for 60 min, and the chemiluminescence was determined. The inhibition percentage of the enzyme activity by the compounds was calculated compared with the DMSO group, and the IC50 values were also calculated.

MIA PaCa-2 cells [1] = assay: In-vitro anti-proliferative activity on MIA PaCa-2 cells (intracellular ATP content); assay type: cell-based; conditions: compound alone, 72 h after dosing, read-out: IC50 Without GMC, anti-proliferative activity on MIA PaCa-2 cells
Procedure: Example 72. In-Vitro Anti-Proliferative Activity of the Compounds of the Present Invention on MIA PaCa-2 Cells
(§1) MIA PaCa-2 cells were seeded on a 384-well plate at 3000 cells/well. After overnight adherence culture, DMSO or the compounds serially diluted 1:5 from 5 μM were added. The viability was assessed 72 h after dosing by measuring the intracellular ATP content. The inhibition percentage of viable cells by the compounds was calculated by comparing with the DMSO group, and the IC50 value was calculated.

MIA PaCa-2 cells [2] = assay: In-vitro anti-proliferative activity in combination with gemcitabine (GMC) on MIA PaCa-2 cells; assay type: cell-based
Procedure: Example 73. In-Vitro Anti-Proliferative Activity of the Compounds of the Present Invention in Combination with Gemcitabine (GMC) on MIA PaCa-2 Cells
as §1, with “cells/well, and 20 nM gemcitabine was added.” for “cells/well.”, “100 nM” for “5 μM”

[3] = read-out: IC50 GMC (20 nM), anti-proliferative activity on MIA PaCa-2 cells, in combination with 20 nM gemcitabine, 72 h after dosing, ATP content
[4] = Homo sapiens, MIA PaCa-2, 72 h, read-out: IC50 GMC (20 nM), anti-proliferative activity on MIA PaCa-2 cells, in combination with 20 nM gemcitabine, 72 h after dosing, ATP content

Chain of Wee-1 kinase (P30291 whole entry): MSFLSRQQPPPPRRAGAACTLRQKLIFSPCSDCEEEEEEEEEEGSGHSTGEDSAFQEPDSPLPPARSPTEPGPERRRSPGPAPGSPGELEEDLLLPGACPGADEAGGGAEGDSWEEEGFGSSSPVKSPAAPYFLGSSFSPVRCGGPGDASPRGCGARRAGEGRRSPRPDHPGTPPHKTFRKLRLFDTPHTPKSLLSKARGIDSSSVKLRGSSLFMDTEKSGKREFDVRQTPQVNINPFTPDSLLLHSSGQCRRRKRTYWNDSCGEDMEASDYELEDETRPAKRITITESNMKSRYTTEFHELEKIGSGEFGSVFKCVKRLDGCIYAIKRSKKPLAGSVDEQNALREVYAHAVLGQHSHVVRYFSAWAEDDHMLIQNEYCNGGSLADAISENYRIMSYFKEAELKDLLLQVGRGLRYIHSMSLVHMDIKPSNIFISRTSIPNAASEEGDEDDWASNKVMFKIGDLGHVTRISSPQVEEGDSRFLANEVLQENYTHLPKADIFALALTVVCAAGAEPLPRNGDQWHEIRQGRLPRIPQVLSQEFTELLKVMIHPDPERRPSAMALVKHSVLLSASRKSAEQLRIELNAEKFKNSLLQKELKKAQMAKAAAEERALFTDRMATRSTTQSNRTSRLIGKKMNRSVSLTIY

SMILES	IC50 (Wee-1 kinase)	IC50 (MIA PaCa-2 cells [1])	IC50 (MIA PaCa-2 cells [2]; [3])	IC50 (MIA PaCa-2 cells [1]; Homo sapiens, MIA PaCa-2, 72 h)	IC50 (MIA PaCa-2 cells [2]; [4])
CN1Cc2cc(Nc3ncc4c(F)cn(-c5cccc(N=S(C)(C)=O)n5)c4n3)cc3c2C(CCC3)C1 (stereo not drawn) [Compound 1]	< 2 nM	37 nM	1.7 nM	–	–
CCS(=O)(CC)=Nc1cccc(-n2cc(F)c3cnc(Nc4cc5c6c(c4)CN(C)CC6CCC5)nc32)n1 (stereo not drawn) [Compound 2]	1.96 nM	–	–	106 nM	2.4 nM
CN1Cc2cc(Nc3ncc4c(F)cn(-c5cccc(N=S6(=O)CCC6)n5)c4n3)cc3c2C(CCC3)C1 (stereo not drawn) [Compound 3]	2.48 nM	–	–	128 nM	2.3 nM
CN1Cc2cc(Nc3ncc4c(F)cn(-c5cccc(N=S6(=O)CCCC6)n5)c4n3)cc3c2C(CCC3)C1 (stereo not drawn) [Compound 4]	2.47 nM	–	–	115 nM	2.1 nM
CN1Cc2cc(Nc3ncc4c(F)cn(-c5cccc(N=S6(=O)CCOCC6)n5)c4n3)cc3c2C(CCC3)C1 (stereo not drawn) [Compound 5]	2.79 nM	139 nM	2.4 nM	–	–
CN1Cc2cc(Nc3ncc4c(F)cn(-c5cccc(P(C)(C)=O)n5)c4n3)cc3c2C(CCC3)C1 (stereo not drawn) [Compound 14]	2.71 nM	–	–	331 nM	1.3 nM
[2H]C([2H])([2H])S(=O)(=Nc1cccc(-n2cc(F)c3cnc(Nc4cc5c6c(c4)CN(C)CC6CCC5)nc32)n1)C([2H])([2H])[2H] (stereo not drawn) [Compound 21]	1.67 nM	–	–	85 nM	1.7 nM
CN1Cc2cc(Nc3ncc4c(F)cn(-c5ccc(F)c(N=S(C)(C)=O)n5)c4n3)cc3c2C(CCC3)C1 (stereo not drawn) [Compound 23]	2.05 nM	–	1.2 nM	155 nM	–
CN1Cc2cc(Nc3ncc4c(F)cn(-c5ccc(Cl)c(N=S(C)(C)=O)n5)c4n3)cc3c2C(CCC3)C1 (stereo not drawn) [Compound 24]	2.49 nM	–	–	184 nM	1.6 nM
CCN1Cc2cc(Nc3ncc4c(C)cn(-c5cccc(N=S(C)(C)=O)n5)c4n3)cc3c2C(CCC3)C1 (stereo not drawn) [Compound 28]	2.33 nM	–	–	172 nM	1.3 nM
CN1Cc2cc(Nc3ncc4c(F)cn(-c5cccc(N=S(C)(C)=O)n5)c4n3)cc3c2C(CCC3)C1 (stereo not drawn) [Compound 63]	3.47 nM	173 nM	–	–	2.3 nM
CN1Cc2cc(Nc3ncc4c(F)cn(-c5ccc(F)c(N=S(C)(C)=O)n5)c4n3)cc3c2C(CCC3)C1 (stereo not drawn) [Compound 64]	3.36 nM	179 nM	2.5 nM	–	–
CN1Cc2cc(Nc3ncc4c(F)cn(-c5ccc(F)c(N=S(C)(C)=O)n5)c4n3)cc3c2[C@H](CCC3)C1 [Compound 65]	1.56 nM	–	–	78 nM	1.4 nM
CN1Cc2cc(Nc3ncc4c(F)cn(-c5cccc(N=S(C)(C)=O)n5)c4n3)cc3c2[C@H](CCC3)C1 [Compound 66]	1.19 nM	–	0.9 nM	28 nM	< 1 nM
[2H]C([2H])([2H])N1Cc2cc(Nc3ncc4c(F)cn(-c5cccc(N=S(C)(C)=O)n5)c4n3)cc3c2[C@H](CCC3)C1 [Compound 67]	1.86 nM	–	0.8 nM	49 nM	< 1 nM
[2H]C([2H])([2H])N1Cc2cc(Nc3ncc4c(F)cn(-c5ccc(F)c(N=S(C)(C)=O)n5)c4n3)cc3c2[C@H](CCC3)C1 [Compound 68]	1.97 nM	–	0.9 nM	76 nM	< 1 nM
[2H]C([2H])([2H])S(=O)(=Nc1cccc(-n2cc(F)c3cnc(Nc4cc5c6c(c4)CN(C)C[C@H]6CCC5)nc32)n1)C([2H])([2H])[2H] [Compound 69]	1.54 nM	–	–	–	–
[2H]C([2H])([2H])S(=O)(=Nc1nc(-n2cc(F)c3cnc(Nc4cc5c6c(c4)CN(C)C[C@H]6CCC5)nc32)ccc1F)C([2H])([2H])[2H] [Compound 70]	1.84 nM	–	–	89 nM	1.1 nM
C=CCn1c(=O)c2cnc(Nc3ccc(N4CCN(C)CC4)cc3)nc2n1-c1cccc(C(C)(C)O)n1 [MK-1775, reference compound]	–	–	–	904 nM	24.2 nM
